Laboratory results taken from patent publication US20240173353A1, “UNIVERSAL CHIMERIC ANTIGEN RECEPTOR T-CELL AND APPLICATION THEREOF” (SHANGHAI IASO BIOTECHNOLOGY CO., LTD., priority 2021, published 2024).

What was measured:
T cells = assay: T cell activation by anti-CD3/CD28 DynaBeads, CD25/CD69/4-1BB expression by flow cytometry
From the text: The inventors pre-treated T cells with dasatinib or DMSO for 5 hr, then activated T cells with anti-CD3/CD28 DynaBeads for 24 hr, and then detected the expression of activation molecules CD25, CD69 and 4-1BB by flow cytometry.
In order to verify the tolerance of the LCK-T316I mutation to the function of dasatinib, the inventors carried out experimental verification on the T cells with LCK edited with different sgRNA lengths prepared in Example 2.
The inventors isolated CD3-positive T cells from human peripheral blood and divided them into eleven portions for processing, with 1e5 cells in each portion. One of these portions was not treated with dasatinib, anti-CD3/CD28 DynaBeads were not added to activate TCR, and this portion was as the initial control group; the other 10 portions of cells were pretreated with different concentrations of dasatinib for 4 hr, ten concentrations ranging from 0 nM to 50 nM were set, and then anti-CD3/CD28 DynaBeads were added to activate TCR signals overnight. On the second day, the expression of CD25, CD69 and 4-1BB activation signals was detected, and the activation of TCR signals was detected. Two replicates were set for each group of experiments.
The inventors divided each of the three groups of edited cells into 6 sub-groups and cultured them in a flat-bottomed 96-well plate. Each sub-group contained two technical replicates, and each well contained 0.15×10^6 cells. […] Subsequently, the cells were cultured for 18 hr. The activated T cell surface marker molecule 4-1BB was detected by using the APC-labeled murine IgG monoclonal antibody, and the activated T cell surface marker molecule CD25 was detected by using the PE-labeled murine IgG monoclonal antibody, and the activated T cell surface marker CD69 was detected by FITC-labeled murine IgG monoclonal antibody.
The inventors conducted research using two groups of T cells (CBE3 control group and Km edited group) in the above experiments. The experimental procedure is basically the same as the above-mentioned experiment (FIG. 32B). The two groups of edited cells were each divided into 7 sub-groups and cultured them in a flat-bottomed 96-well plate. Each sub-group contained two technical replicates, and each well contained 0.15×10^6 cells. […] Subsequently, the cells were cultured for 18 hr. The activated T cell surface marker molecule 4-1BB was detected by using the APC-labeled murine IgG monoclonal antibody, and the activated T cell surface marker molecule CD25 was detected by using the PE-labeled murine IgG monoclonal antibody, and the activated T cell surface marker CD69 was detected by FITC-labeled murine IgG monoclonal antibody.

anti-BCMA-CAR-T cells = assay: CD107a translocation of anti-BCMA-CAR-T cells co-incubated with target cells; assay type: cell-based, human; details: wild-type anti-BCMA CAR-T, adjusted to 0 nM
NK cells = assay: CD107a release of NK cells activated by K562; assay type: cell-based, human
Procedure: The inventor used Miltenyi human NK sorting magnetic beads to separate NK cells from human peripheral blood, and used DAKEWE NK medium to culture and expand them in vitro. On Day 8, a population of NK cells with more than 95% having positive CD56 expression could be obtained. These NK cells were taken out and treated with 0 nM, 100 nM and 200 nM dasatinib respectively for 24 hr, and then divided into two groups, one of which was not activated, and the other group was stimulated with MHC-class I molecule-deficient K562 cells for 5 hr. Then, the CD107a release of NK cells were detected in both of them.
The inventors isolated NK cells from human PBMCs, and then cultured and differentiated them in NK medium to obtain CD56-positive NK cells with a purity higher than 95%. The exploration of the threshold of NK activation with dasatinib was carried out with seven concentrations in the range of 0-50 nM, namely 0, 10, 20, 25, 30, 40 and 50 nM, and the treatment was carried out overnight. The next day, the cells were resuspended with NK medium and activated with K562. Lymphocyte activator was used as a positive control for activation, and a part of NK cells that were not activated by K562 were also kept. Two replicates were set for each group. anti-CD107a antibody and monensin were added while carrying out activation, and after co-incubation for 6 hr, the CD107a release of CD56-positive NK cells was detected by flow cytometry.
The inventors isolated NK cells from human PBMCs, and then cultured and differentiated them in NK medium to obtain CD56-positive NK cells with a purity higher than 95%. Three pretreatments were done respectively (1) absence of dasatinib pretreatment; (2) pretreatment with […] pretreatment with 50 nM dasatinib, and the cells were cultured overnight. The next day, the concentration of dasatinib was reduced, and the concentration was adjusted to 0, 7.5, 12.5, 17.5 and 25 nM respectively. […] Two replicates were set for each group.
In order to repeatedly verify that the inhibition of NK cell activation function by dasatinib has an extended effect, the inventors repeated the above experiment. […] After 4 hr of co-incubation, CD107a release from CD56 positive NK cells was detected.
The inventors used CD3-negative cells in human PBMCs, which contained more than 5% of CD56-positive NK cells. […] The next day, the cells were resuspended with NK medium and activated with K562. Lymphocyte activator was used as a positive control for activation, and a part of NK cells that were not activated by K562 were also kept. Two replicates were set for each group. anti-CD107a antibody and monensin were added while carrying out activation, and after co-incubation for 6 hr, the CD107a release of CD56-positive NK cells was detected by flow cytometry.
The inventors isolated NK cells from human PBMCs, and then cultured and differentiated them in NK medium to obtain CD56-positive NK cells with a purity higher than 95%. […] Two replicates were set for each group.

CD19-UCART cells = assay: CD107a release of CD19-UCART co-incubated with Raji, dynamic ponatinib concentration; assay type: cell-based, human
Procedure: In this example, the inventors used the prepared CD19-UCART and Km-edited CD19-UCART cells in the experiments. […] The next day, the concentration was adjusted to 0, 50, 100 and 200 nM in the group of 200 nM pretreatment overnight, and the concentration was adjusted to 0, 100, 200 nM and 300 nM in the group of 500 nM pretreatment overnight. […] Two technical replicates were set for each group. After 4 hr of co-incubation, CD107a release in CD8 and CAR double-positive cells was detected.

[1] = CBE3 control group, 200 nM ponatinib
[2] = Km edited group, 500 nM ponatinib
[3] = Km group (30% T316I), 200 nM ponatinib
[4] = Sg12 control group, 200 nM ponatinib
[5] = second experiment, Km group, 200 nM ponatinib

For `Cc1ccc(C(=O)Nc2ccc(CN3CCN(C)CC3)c(C(F)(F)F)c2)cc1C#Cc1cnc2cccnn12` [ponatinib], the “number of cells (survival of T cells)” value (T cells; 1000 nM ponatinib) was “significantly reduced”, the “CD25 and 4-1BB double-positive cells” value (T cells; [1]) was 1.00% and the “CD25 and CD69 double-positive cells” value (T cells; [1]) was 5.59%. The “CD25 and 4-1BB double-positive cells” value (T cells; [2]) was 2.42%, the “CD25 and CD69 double-positive cells” value (T cells; [2]) was 6.75% and the “CD25 and 4-1BB double-positive cells” value (T cells; [3]) was 24.1%. The “CD25 and CD69 double-positive cells” value (T cells; [3]) was 17.7%, the “CD25 and 4-1BB double-positive cells” value (T cells; [4]) was 1.85% and the “CD25 and CD69 double-positive cells” value (T cells; [4]) was 5.31%. The “concentration that effectively inhibits activation of T cells” value (T cells; in vitro) was 200 nM, the “cells expressing CD25 and 4-1BB” value (T cells; [5]) was 19.71% and the “cells expressing CD25 and CD69” value (T cells; [5]) was 23.9%. For the same molecule, the “percentage of CD107a positive cells” value (anti-BCMA-CAR-T cells; 200 nM ponatinib pretreatment, RPMI-8226 4 hr) was “about 16%”, the “percentage of CD107a positive cells” value (anti-BCMA-CAR-T cells; 500 nM pretreatment) was “about 3%” and the “release of CD107a” value (NK cells; NK cells, highest ponatinib pretreatment (200 nM), lowered to 0 nM, K562) was “above 38%”. For the same molecule, the “concentration that effectively inhibits NK cell activation in vitro” value (NK cells; ponatinib) was 200 nM, the “concentration that shuts down activation of CD19-UCART with LCK-T316I mutation” value (CD19-UCART cells) was 500 nM and the “percentage of CD107a-positive cells” value (CD19-UCART cells; CD19-UCART group, 200 nM pretreatment overnight, adjusted to 0 nM, Raji 4 hr) was 17.2%. The “percentage of CD107a-positive cells” value (CD19-UCART cells; CD19-UCART group, 200 nM pretreatment, 50 nM) was 0.485%, the “percentage of CD107a-positive cells” value (CD19-UCART cells; CD19-UCART group, 200 nM pretreatment, 200 nM, Raji 4 hr) was 0.735% and the “percentage of CD107a-positive cells” value (CD19-UCART cells; CD19-UCART group, 500 nM pretreatment, 300 nM) was 0.495%. For the same molecule, the “percentage of CD107a-positive cells” value (CD19-UCART cells; CD19-UCART group, 500 nM pretreatment, adjusted to 0 nM) was 1.73%, the “percentage of CD107a-positive cells” value (CD19-UCART cells; Km-edited CD19-UCART group, 200 nM pretreatment, 200 nM) was 5.12% and the “percentage of CD107a-positive cells” value (CD19-UCART cells; Km-edited CD19-UCART group, 200 nM pretreatment, adjusted to 0 nM) was 16.6%. For the same molecule, the “percentage of CD107a-positive cells” value (CD19-UCART cells; Km-edited CD19-UCART group, 500 nM pretreatment, 300 nM) was 1.47% and the “percentage of CD107a-positive cells” value (CD19-UCART cells; Km-edited CD19-UCART group, 500 nM pretreatment, adjusted to 0 nM) was 11.15%.
